Assay results from the supplement of paper PMC10307832.

Key:
Experiment in all cases: relative viability (nuclei count vs DMSO), 5 days (fraction); higher = more cells survive
Linsitinib + Pictilisib = compound: C[C@]1(O)C[C@@H](c2nc(-c3ccc4ccc(-c5ccccc5)nc4c3)c3c(N)nccn32)C1 [Linsitinib] + CS(=O)(=O)N1CCN(Cc2cc3nc(-c4cccc5[nH]ncc45)nc(N4CCOCC4)c3s2)CC1 [Pictilisib] (partner 1 µM)
Procedure, shortened: (§1)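 Lung cancer cell lines, seeded in 1536-well plates, were treated the following day by pin tool with a single drug or with five library-drug doses (not always all listed) in √10 steps on top of a fixed anchor-drug dose. Cells were fixed and nuclei stained in one step after 5 days, and nuclei were counted. Relative viability is the nuclei count for treated wells divided by that for vehicle wells, reported as medians of duplicate plates.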

Ispinesib + Palbociclib = compound: Cc1ccc(C(=O)N(CCCN)[C@@H](c2nc3cc(Cl)ccc3c(=O)n2Cc2ccccc2)C(C)C)cc1 [Ispinesib] + CC(=O)c1c(C)c2cnc(Nc3ccc(N4CCNCC4)cn3)nc2n(C2CCCC2)c1=O [Palbociclib] (partner 0.5 µM)
Procedure, shortened: as §1

Ispinesib + Dasatinib = compound: Cc1ccc(C(=O)N(CCCN)[C@@H](c2nc3cc(Cl)ccc3c(=O)n2Cc2ccccc2)C(C)C)cc1 [Ispinesib] + Cc1nc(Nc2ncc(C(=O)Nc3c(C)cccc3Cl)s2)cc(N2CCN(CCO)CC2)n1 [Dasatinib] (partner 0.075 µM)
Procedure, shortened: as §1

Ispinesib + Olaparib = compound: Cc1ccc(C(=O)N(CCCN)[C@@H](c2nc3cc(Cl)ccc3c(=O)n2Cc2ccccc2)C(C)C)cc1 [Ispinesib] + O=C(c1cc(Cc2n[nH]c(=O)c3ccccc23)ccc1F)N1CCN(C(=O)C2CC2)CC1 [Olaparib] (partner 8 µM)
Procedure, shortened: as §1

Cell Line	relative viability (Linsitinib + Pictilisib; first compound 0.01 µM)	relative viability (Linsitinib + Pictilisib; first compound 0.03162 µM)	relative viability (Linsitinib + Pictilisib; first compound 0.1 µM)	relative viability (Linsitinib + Pictilisib; first compound 0.3162 µM)	relative viability (Linsitinib + Pictilisib; first compound 1 µM)	relative viability (Ispinesib + Palbociclib; first compound 0.001 µM)	relative viability (Ispinesib + Palbociclib; first compound 0.003162 µM)	relative viability (Ispinesib + Palbociclib; first compound 0.01 µM)	relative viability (Ispinesib + Palbociclib; first compound 0.03162 µM)	relative viability (Ispinesib + Palbociclib; first compound 0.1 µM)	relative viability (Ispinesib + Dasatinib; first compound 0.001 µM)	relative viability (Ispinesib + Dasatinib; first compound 0.003162 µM)	relative viability (Ispinesib + Dasatinib; first compound 0.01 µM)	relative viability (Ispinesib + Dasatinib; first compound 0.03162 µM)	relative viability (Ispinesib + Dasatinib; first compound 0.1 µM)	relative viability (Ispinesib + Olaparib; first compound 0.001 µM)	relative viability (Ispinesib + Olaparib; first compound 0.003162 µM)	relative viability (Ispinesib + Olaparib; first compound 0.01 µM)	relative viability (Ispinesib + Olaparib; first compound 0.03162 µM)	relative viability (Ispinesib + Olaparib; first compound 0.1 µM)
NCI-H1651	0.505	0.569	0.475	0.377	0.508	0.526	0.57	0.61	0.518	0.576	0.655	0.497	0.479	0.334	0.136	0.183	0.217	0.179	0.169	0.19
NCI-H1666	0.376	0.286	0.296	0.162	0.307	0.736	0.63	0.679	0.705	0.52	0.864	0.894	0.776	0.594	0.419	0.756	0.801	0.702	0.713	0.663
NCI-H1734	0.474	0.456	0.392	0.421	0.295	0.396	0.224	0.41	0.346	0.279	0.428	0.53	0.53	0.337	0.187	0.613	0.658	0.64	0.675	0.449
NCI-H1755	0.422	0.409	0.442	0.237	0.372	0.467	0.451	0.457	0.431	0.463	0.391	0.453	0.387	0.352	0.237	0.909	0.928	0.963	0.987	0.759
NCI-H1792	0.314	0.279	0.192	0.269	0.179	0.725	0.762	0.859	0.686	0.301	1.25	0.777	0.776	0.9	0.325	0.385	0.394	0.252	0.53	0.152
NCI-H1793	0.309	0.311	0.238	0.235	0.29	0.358	0.314	0.31	0.312	0.219	0.361	0.412	0.451	0.334	0.141	1.04	0.833	1.19	0.752	0.371
NCI-H1915	0.996	0.943	0.97	0.726	0.522	0.528	0.694	0.542	0.491	0.41	0.304	0.312	0.38	0.25	0.137	0.262	0.266	0.298	0.258	0.209
NCI-H1944	0.33	0.354	0.344	0.349	0.299	0.347	0.35	0.353	0.279	0.304	0.214	0.266	0.211	0.184	0.104	0.436	0.454	0.491	0.418	0.406
NCI-H1975	0.286	0.253	0.246	0.255	0.178	0.663	0.683	0.581	0.311	0.192	0.443	0.43	0.425	0.158	0.114	0.864	0.802	0.842	0.922	0.181
NCI-H1993	0.831	0.832	0.843	0.643	0.896	0.566	0.404	0.66	0.673	0.487	0.617	0.373	0.634	0.548	0.584	1.08	1.07	1.11	1.23	0.822
NCI-H2009	0.946	0.796	0.833	0.101	0.687	0.234	0.153	0.222	0.113	0.169	0.264	0.325	0.271	0.142	0.144	0.735	0.678	0.793	0.859	0.257
NCI-H2023	0.233	0.18	0.172	0.0774	0.147	0.462	0.392	0.383	0.145	0.138	0.693	0.613	0.613	0.306	0.146	0.543	0.553	0.511	0.271	0.232
NCI-H2085	0.431	0.462	0.426	0.466	0.471	0.384	0.411	0.481	0.469	0.402	0.228	0.225	0.242	0.261	0.206	0.747	0.779	0.845	0.792	0.544
NCI-H2087	0.92	0.906	0.723	0.294	0.775	0.206	0.224	0.262	0.172	0.112	0.998	0.841	0.963	0.39	0.117	0.708	0.694	0.801	0.545	0.145
NCI-H2126	0.489	0.486	0.459	0.389	0.359	0.335	0.393	0.314	0.339	0.385	0.671	0.658	0.768	0.566	0.413	0.986	0.963	0.981	1.08	0.85
NCI-H2170	0.336	0.317	0.308	0.26	0.23	0.402	0.36	0.431	0.282	0.257	0.639	0.583	0.58	0.294	0.201	0.593	0.679	0.651	0.481	0.444
